Laboratory results as given in PubChem BioAssay AID1963439 (Molecular Pharmacology Branch, DTP, NCI, 2024).
“And” between values parts separate entries of the source, which are not always exact repeats. Equal entries are not always repeated.

System: NCI-H196 complex spheroids with HUVEC/MSC, growth % T/C
Experiment: Anticancer human tumor NCI-H196 cell line growth inhibition [Asc];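 also: spheroids exposed to compound for 7 days before measurement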;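 as to viability, T/C: 100% = DMSO vehicle control wells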
Conditions: for viability, T/C: stronger effect = lower value
Summary of the method: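 Tumor cells were grown as multicellular spheroids with stromal HUVEC and mesenchymal stem cells and treated singly or in combination. Concentrations fell in half-log steps from the clinical Cmax, or from 10 microM where none was known.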

[1] = curve of first compound, second compound 0.03 µM
[2] = curve of first compound, second compound 0.0949 µM
[3] = curve of first compound, second compound 0.3 µM
[4] = curve of first compound, second compound 0.949 µM
[5] = curve of first compound, second compound 3 µM
[6] = second compound 0.03 µM, first compound 0.00316 µM
[7] = second compound 0.03 µM, first compound 0.01 µM
[8] = second compound 0.03 µM, first compound 0.0316 µM
[9] = second compound 0.03 µM, first compound 0.1 µM
[10] = second compound 0.0949 µM, first compound 0.00316 µM
[11] = second compound 0.0949 µM, first compound 0.01 µM
[12] = second compound 0.0949 µM, first compound 0.0316 µM
[13] = second compound 0.0949 µM, first compound 0.1 µM
[14] = second compound 0.3 µM, first compound 0.00316 µM
[15] = second compound 0.3 µM, first compound 0.01 µM
[16] = second compound 0.3 µM, first compound 0.0316 µM
[17] = second compound 0.3 µM, first compound 0.1 µM
[18] = second compound 0.949 µM, first compound 0.00316 µM
[19] = second compound 0.949 µM, first compound 0.01 µM
[20] = second compound 0.949 µM, first compound 0.0316 µM
[21] = second compound 0.949 µM, first compound 0.1 µM
[22] = second compound 3 µM, first compound 0.00316 µM
[23] = second compound 3 µM, first compound 0.01 µM
[24] = second compound 3 µM, first compound 0.0316 µM
[25] = second compound 3 µM, first compound 0.1 µM

CCN1C(C(=O)NC23CCC(C(=O)O)(CC2)CC3)C(c2cccc(Cl)c2F)C2(C(=O)Nc3cc(Cl)ccc32)C12CCCCC2 (centres undefined) + Cc1c(S(C)(=O)=O)c(-c2cc(F)cc(N3CCN(c4ccc(NS(=O)(=O)c5ccc(NC(CCN6CCC(C(=O)OCCCP(=O)(O)O)CC6)CSc6ccccc6)c(S(=O)(=O)C(F)(F)F)c5)cc4)CC3)c2)c(-c2ccc(Cl)cc2)n1C(C)C
IC50 (curve of first compound, second compound 0.1 µM): > 3 µM
IC50 (curve of first compound, second compound 0.316 µM): > 3 µM
IC50 (curve of first compound, second compound 1 µM): > 3 µM
IC50 (curve of first compound, second compound 3.16 µM): 2.85 µM
IC50 (curve of first compound, second compound 10 µM): 1.66 µM
viability, T/C (second compound 0.1 µM, first compound 0.00949 µM): 89.3%
viability, T/C (second compound 0.1 µM, first compound 0.03 µM): 104%
viability, T/C (second compound 0.1 µM, first compound 0.0949 µM): 91.2%
viability, T/C (second compound 0.1 µM, first compound 0.3 µM): 91.5%
viability, T/C (second compound 0.1 µM, first compound 0.949 µM): 92.2%
viability, T/C (second compound 0.1 µM, first compound 3 µM): 86.4%
viability, T/C (second compound 0.316 µM, first compound 0.00949 µM): 89.6%
viability, T/C (second compound 0.316 µM, first compound 0.03 µM): 89.7%
viability, T/C (second compound 0.316 µM, first compound 0.0949 µM): 95.5%
viability, T/C (second compound 0.316 µM, first compound 0.3 µM): 85.3%
viability, T/C (second compound 0.316 µM, first compound 0.949 µM): 88.3%
viability, T/C (second compound 0.316 µM, first compound 3 µM): 69.4%
viability, T/C (second compound 1 µM, first compound 0.00949 µM): 84.3%
viability, T/C (second compound 1 µM, first compound 0.03 µM): 83%
viability, T/C (second compound 1 µM, first compound 0.0949 µM): 87.5%
viability, T/C (second compound 1 µM, first compound 0.3 µM): 80.8%
viability, T/C (second compound 1 µM, first compound 0.949 µM): 78.9%
viability, T/C (second compound 1 µM, first compound 3 µM): 62.6%
viability, T/C (second compound 3.16 µM, first compound 0.00949 µM): 77.9%
viability, T/C (second compound 3.16 µM, first compound 0.03 µM): 82.5%
viability, T/C (second compound 3.16 µM, first compound 0.0949 µM): 72.5%
viability, T/C (second compound 3.16 µM, first compound 0.3 µM): 72.3%
viability, T/C (second compound 3.16 µM, first compound 0.949 µM): 66.2%
viability, T/C (second compound 3.16 µM, first compound 3 µM): 48.7%
viability, T/C (second compound 10 µM, first compound 0.00949 µM): 70.2%
viability, T/C (second compound 10 µM, first compound 0.03 µM): 79.1%
viability, T/C (second compound 10 µM, first compound 0.0949 µM): 70.1%
viability, T/C (second compound 10 µM, first compound 0.3 µM): 73.2%
viability, T/C (second compound 10 µM, first compound 0.949 µM): 59%
viability, T/C (second compound 10 µM, first compound 3 µM): 38.6%

Cc1c(S(C)(=O)=O)c(-c2cc(F)cc(N3CCN(c4ccc(NS(=O)(=O)c5ccc(NC(CCN6CCC(C(=O)OCCCP(=O)(O)O)CC6)CSc6ccccc6)c(S(=O)(=O)C(F)(F)F)c5)cc4)CC3)c2)c(-c2ccc(Cl)cc2)n1C(C)C (centres undefined)
viability, T/C (compound 0.1 µM): 94.5% [middle of 14 runs]
viability, T/C (compound 0.316 µM): 92.9% [middle of 14 runs]
viability, T/C (compound 1 µM): 91.4% [middle of 14 runs]
viability, T/C (compound 3.16 µM): 82.2% [middle of 14 runs]
viability, T/C (compound 10 µM): 75.3% [middle of 14 runs]
IC50 (compound alone, run of 09/27/2022): > 10 µM

C=C(F)C(=O)N1CCN(c2nc(OCC3CCCN3C)nc3c2CCN(c2cccc4cccc(Cl)c24)C3)CC1CC#N (centres undefined)
viability, T/C (compound 0.0316 µM): 95.2% and 99.4% and 108%
viability, T/C (compound 0.1 µM): 109% and 99.9% and 101%
viability, T/C (compound 0.316 µM): 100% and 102% and 113%
viability, T/C (compound 1 µM): 96.1% and 103% and 109%
viability, T/C (compound 3.16 µM): 94.2% and 103% and 111%
IC50 (curve of compound): > 10 µM and 5.95 µM

CCN1CCN(Cc2ccc(Nc3ncc(F)c(-c4cc(F)c5nc(C)n(C(C)C)c5c4)n3)nc2)CC1 + CCN1C(C(=O)NC23CCC(C(=O)O)(CC2)CC3)C(c2cccc(Cl)c2F)C2(C(=O)Nc3cc(Cl)ccc32)C12CCCCC2
IC50 [1]: > 1 µM
IC50 [2]: > 1 µM
IC50 [3]: > 1 µM
IC50 [4]: > 1 µM
IC50 [5]: > 1 µM
viability, T/C [6]: 99.9%
viability, T/C [7]: 99.8%
viability, T/C [8]: 96.1%
viability, T/C [9]: 99.8%
viability, T/C (second compound 0.03 µM, first compound 0.316 µM): 116%
viability, T/C (second compound 0.03 µM, first compound 1 µM): 124%
viability, T/C [10]: 113%
viability, T/C [11]: 112%
viability, T/C [12]: 99.4%
viability, T/C [13]: 106%
viability, T/C (second compound 0.0949 µM, first compound 0.316 µM): 115%
viability, T/C (second compound 0.0949 µM, first compound 1 µM): 131%
viability, T/C [14]: 107%
viability, T/C [15]: 128%
viability, T/C [16]: 117%
viability, T/C [17]: 114%
viability, T/C (second compound 0.3 µM, first compound 0.316 µM): 117%
viability, T/C (second compound 0.3 µM, first compound 1 µM): 140%
viability, T/C [18]: 127%
viability, T/C [19]: 111%
viability, T/C [20]: 123%
viability, T/C [21]: 113%
viability, T/C (second compound 0.949 µM, first compound 0.316 µM): 120%
viability, T/C (second compound 0.949 µM, first compound 1 µM): 142%
viability, T/C [22]: 129%
viability, T/C [23]: 123%
viability, T/C [24]: 114%
viability, T/C [25]: 109%
viability, T/C (second compound 3 µM, first compound 0.316 µM): 119%
viability, T/C (second compound 3 µM, first compound 1 µM): 139%

NC1CCC(NC2CC2c2ccccc2)CC1 (centres undefined)
viability, T/C (compound 0.000316 µM): 103% and 108% and 100%
viability, T/C (compound 0.001 µM): 93.8% and 106% and 108%
viability, T/C (compound 0.00316 µM): 108% (2×) and 97.2%
viability, T/C (compound 0.01 µM): 93% and 98.4% and 103%
viability, T/C (compound 0.0316 µM): 99.4% and 105% and 114%
viability, T/C (compound 0.1 µM): 92.6% and 112% and 92.1%
IC50 (curve of compound): > 0.1 µM

NC1CCC(NC2CC2c2ccccc2)CC1 (centres undefined) + CCN1C(C(=O)NC23CCC(C(=O)O)(CC2)CC3)C(c2cccc(Cl)c2F)C2(C(=O)Nc3cc(Cl)ccc32)C12CCCCC2
IC50 [1]: > 0.1 µM
IC50 [2]: > 0.1 µM
IC50 [3]: > 0.1 µM
IC50 [4]: > 0.1 µM
IC50 [5]: > 0.1 µM
viability, T/C (second compound 0.03 µM, first compound 0.000316 µM): 109%
viability, T/C (second compound 0.03 µM, first compound 0.001 µM): 98%
viability, T/C [6]: 109%
viability, T/C [7]: 110%
viability, T/C [8]: 105%
viability, T/C [9]: 96.7%
viability, T/C (second compound 0.0949 µM, first compound 0.000316 µM): 102%
viability, T/C (second compound 0.0949 µM, first compound 0.001 µM): 108%
viability, T/C [10]: 111%
viability, T/C [11]: 103%
viability, T/C [12]: 100%
viability, T/C [13]: 105%
viability, T/C (second compound 0.3 µM, first compound 0.000316 µM): 118%
viability, T/C (second compound 0.3 µM, first compound 0.001 µM): 117%
viability, T/C [14]: 108%
viability, T/C [15]: 105%
viability, T/C [16]: 97.8%
viability, T/C [17]: 119%
viability, T/C (second compound 0.949 µM, first compound 0.000316 µM): 111%
viability, T/C (second compound 0.949 µM, first compound 0.001 µM): 121%
viability, T/C [18]: 112%
viability, T/C [19]: 114%
viability, T/C [20]: 115%
viability, T/C [21]: 119%
viability, T/C (second compound 3 µM, first compound 0.000316 µM): 119%
viability, T/C (second compound 3 µM, first compound 0.001 µM): 123%
viability, T/C [22]: 112%
viability, T/C [23]: 104%
viability, T/C [24]: 115%
viability, T/C [25]: 112%
